Data on one molecule can be found in patent publication US6432683B1, “Preparation of 2-aminomuconate from 2-aminophenol by coupled enzymatic dioxygenation and dehydrogenation reactions” (The United States of America as represented by the …, priority 2000, dated 2002).

Structures are written as SMILES.

For the setting “buffer, pH 9.5”, `NC(=CC=CC(=O)O)C(=O)O` [2-Aminomuconate, 2-aminohexa-2,4-diene-1,6-dioate] displayed a half-life of 20 h. Besides, under “pH 8.0 in potassium phosphate buffer”, the “amount lost on freezing and thawing” value is listed as 50%. Further, under “pH 9.5 (Tris-HCl)”, the “decomposition on freezing and thawing” value is reported as “about 2%”. Further, the “amount lost on storage” value (solution stored on ice for 50 h, 0.34 mM) is reported as 30%.
